Source: patent publication US6667328B2, “Therapeutic agents for diabetes” (Fujimoto Brothers Co., Ltd., priority 2000, dated 2003)

Legend:
[1] = system: Genetically diabetic db/db mice (C57BL/ksJ Jcl-dbm db/db mice); experiment: Blood sugar lowering actions in genetically diabetic mice; assay type: in vivo; settings: serum glucose vs control group
Procedure: (§1) Genetically diabetic db/db mice (C57BL/ksJ Jcl-dbm db/db mice) older than 8 weeks were grouped depend on their blood sugar levels of the prior measurements in order to divide groups with almost equal mean value of the sugar level. The respective groups of db/db mice were designates as the following groups: the group given the compound of the present invention, the group of troglitazone, and the group given no administrating group. For the compounds of the present invention, two doses: 75 mg/kg and 150 mg/kg, and for troglitazone, a dose of 150 mg/kg were individually given to the mice as a forced oral administration once daily for 14 days successively. These agents were suspended in 3.0% Arabic gum solution for administration. To the control group, only the same volume of 3.0% Arabic gum solution was administered. On the next day of the final administration, each mouse was […] for sampling. The blood samples were subject to serum separation. The glucose level in the serum of each group was measured. Then, a reduction rate in a glucose level (%) compared to the control group was calculated with mean value of each group according to the equation below. […] [formula]

[2] = system: 3T3-L1 preadipocyte cells; experiment: Differentiation-inducing actions on adipose cells (oil red-O staining, absorbance at 490 nm); assay type: cell-based; settings: 3T3-L1, oil red-O extract absorbance at 490 nm, ratio to control group (1.0)
Procedure: The cloned cell line 3T3-L1 of the preadipocyte cells at the 9-20th generation were used. The cell suspension at a concentration of 2×10^4 cells/ml was added 500 μl/well in a 24 well microplate. Then, the microplates were cultured at 37° C. in the atmosphere of 5% CO2 for 4 days with D-MEM containing 5% inactivated fetal calf serum (hereinafter abbreviated as “FCS D-MEM”). Next, the following procedures were conducted.
(1) To test compound of this invention, 500 μl/well of the following solutions was added to each well:
1) test compound-containing medium (T-MEM) in which the test compound in a stock solution (30 mM in DMSO) was diluted with FCS D-MEM containing 0.1 μM dexamethazone and 100 ng/ml insulin (hereinafter abbreviated as DEX-Ins-FCS D-MEM);
2) FCS-D-MEM; 3) DEX-Ins-FCS D-MEM; 4) 0.1% DMSO-containing DEX-Ins-FCS D-MEM for me control wells.
(2) After above additions were done, the culture plates were incubated at 37° C. in 5% CO2 for 3 days. Then, the same operations as in the procedure (1) were repeated for exchange of the culture medium. The culture plates were incubated at 37° C. in 5% CO2 for further 3 days.
(3) After incubation, the culture medium was removed from the culture plates. Then, the FCS D-MEM was added to the FCS D-MEM-wells, and next the medium prepared for containing 100 ng/ml of insulin with the FCS D-MEM (hereinafter abbreviated as “Ins-FCS D-MEM”) was added at 500 μl/well to the T-MEM wells and DEX-Ins-FCS D-MEM wells. All culture plates were incubated for 4 days.
(4) After incubation, the culture medium was removed. For cell fixation, 500 μl/well of 10% formalin in neutral buffer was added, and left at the room temperature for approximately 20 minutes or longer. Then the formalin solution was removed, and 60% 2-propanol solution was added at 500 μl/well, then quickly removed, and the oil red-O staining solution was added at 250 μl/well. The culture plates were sealed with plate seals, and left at room temperature for 30 minutes or longer. After incubation, the staining solution was removed, and the 60% 2-propanol solution was added at 500 μl/well, and quickly removed. The cells were rinsed with water a few times, and then water drops were flipped away. A cell-lysis buffer was added at 500 μl/well, and the culture plates were sealed with plate seals, and left at 37° C. for 1 hour to extract the pigments. Next, 300 μl/well of the extract solution was transferred at a 96 well micro-plates, and then the absorbance of each extract was measured at wavelength of 490 nm.
The absorbance ratios of the respective test compounds-groups to the control group, the mean absorbance of which was designated as 1.0, are shown in Table 8. Based on the judgement that the absorbance higher than that of the control group indicates a greater differentiation-inducing activity of the test compound, the compounds of the present invention were determined to have the activity to induce differentiation of preadipocytes to adipocytes, resulting in elevating insulin sensitivity of organs. Thereby, this activity would confer the efficacy in the therapy of diabetes.

[3] = system: db/db mice; experiment: Antihyperlipidemic activities in genetically diabetic mice; assay type: in vivo; settings: 150 mg/kg p.o. once daily for 14 days, serum
Procedure: as §1
In the same way as described in EXAMPLE 4, db/db mice were grouped in the manner by which the respective groups had almost equivalent mean blood sugar levels. The compounds 1, 3, 13, 21 and 22 of the present invention, suspended in 3.0% Arabic gum solution, were orally administrated, with a dose of 150 mg/kg, once daily for successive 14 days. The control group of mice were given the vehicle solution only. On the next day of the final administration, each mouse was bled for sampling. The blood was subjected for serum separation, and then subjected to measurements of β-lipoproteins, free fatty acids, and triglycerides. The reduction rate (%) of each measurement compared to the control group was calculated by the equation indicated in EXAMPLE 4. […] (Table 9).

[4] = system: fructose-induced hyperlipidemic rats; experiment: Hypotriglyceridemic activity in fructose-induced hyperlipidemic rats; assay type: in vivo, Sprague Dawley rats; settings: fructose-loaded rats, 30 mg/kg p.o. once daily for 7 days; for inhibition in vivo at 30 mg/kg: Rattus norvegicus, po, 168 h, read-out: Reduction in Serum Triglyceride (%)
Procedure: The compounds were tested for a hypotriglyceridemic activity in fructose-induced hyperlipidemic rats in accordance with the method described in Nippon Yakurigaku Zasshi, 92 (3), 175-180 (1988). Sprague Dawley rats were grouped by the ranking method of body weight. Then, instead of drinking water, rats were given 75% fructose aqueous ad libitum for one week, thereby, resulting in the state of hypertriglyceridemia. The compounds of the present invention, suspended in 3% Arabic gum aqueous solution, and a dose of 30 mg/kg was orally administrated once daily for 7 days during the fructose-loading period. The control group of rats were given 3% Arabic gum aqueous solution only. Two hours later of the final administration, the rats were bled from the abdominal aorta to measure serum triglycerides and total cholesterol. The reduction rate (%) of each measurement compared to the control groups was calculated according to the equation indicated in EXAMPLE 4.

[5] = system: high cholesterol-fed hamsters; experiment: Lipid lowering effects in high cholesterol-fed hamsters; assay type: in vivo, Syrian hamsters; settings: serum, negative = elevation
Source text: According to the method described in Jpn Pharmacol Ther, 23 (suppl 4), s1047-1053 (1995), male Syrian hamstars were fed for 3 weeks with 1% cholesterol 10% coconut oil (W/W) supplemented diet, and thereby, became to be hypercholesterolemia models. Prior to administration of the compounds, under ether anesthesia, the hamsters were bled from the orbital vein for measurement of serum total cholesterol. They were grouped in the manner by which the respective groups had almost equal serum total cholesterol levels. The normal group of hamsters were fed ordinary diet. Thereafter, the compound 1 and bezafibrate were orally administered once daily at doses of 15 (for only compound 1), 30, 60 and 120 mg/kg for 7 days. Even during the treatment period, cholesterol loading was continued. Four hours later of the final administration, the hamsters were bled by cardiac puncture. The total cholesterol and triglycerides in the serum obtained were measured by the enzymatic method. The results are shown in Table 11 (the negative values mean elevation rates.)
The actions of the compounds of the present invention at a dose of 15 mg/kg were measured in the same method as described in EXAMPLE 8.

[6] = system: mice; experiment: Acute toxicity tests with single dosing in mice; assay type: in vivo; settings: 2000 mg/kg single oral dose, observed for 2 weeks
Procedure: The compounds (the compound 1 and 10) of the present invention were singly orally administered to each mouse at a dose of 2000 mg/kg.

[7] = system: Salmonella typhimurium TA100 and TA98; experiment: Mutagenesis tests (reverse mutation test); assay type: cell-based; settings: TA100 and TA98, direct method (−s9mix) and metabolically activated method (+s9mix)
Procedure: In order to examine mutagenecity of the compound 1, the reverse mutation test was conducted with use of Salmonella typhimurium TA100 and TA98.

[8] = 75 mg/kg oral once daily for 14 days
[9] = 150 mg/kg oral once daily for 14 days
[10] = 15 mg/kg oral once daily for 7 days
[11] = 30 mg/kg oral once daily for 7 days
[12] = 60 mg/kg oral once daily for 7 days
[13] = 120 mg/kg oral once daily for 7 days

Compound | Reduction in Blood Glucose (%) [1, 8] | Reduction in Blood Glucose (%) [1, 9] | Absorbance Ratio [2] | Reduction Rate (%) Free Fatty Acids [3] | Reduction Rate (%) Triglycerides [3] | Reduction Rate (%) β-lipoproteins [3] | Reduction in Serum Triglyceride (%) [4] | Reduction Rate (%) Total cholesterol [5, 10] | Reduction Rate (%) Triglyceride [5, 10] | Reduction Rate (%) Total cholesterol [5, 11] | Reduction Rate (%) Triglyceride [5, 11] | Reduction Rate (%) Total cholesterol [5, 12] | Reduction Rate (%) Triglyceride [5, 12] | Reduction Rate (%) Total cholesterol [5, 13] | Reduction Rate (%) Triglyceride [5, 13] | Survival after single oral dose [6] | Mutagenicity (number of reversely mutated colonies) [7] | inhibition in vivo at 30 mg/kg [4]
N#CN=C1NC(=O)/C(=C\c2ccc(C=Cc3ccccc3)cc2)S1 [Compound 1, 2-(N-Cyanoimino)-5-[(E)-4-stylylbenzylidene]thiazolidin-4-one] | 31% | 37% | 1.46 | 39% | 69% | 51% | 47% | 26% | 60% | 25% | 62% | 29% | 69% | 41% | 80% | all 3 mice given the respective compounds survived | non-mutagenic | –
N#CN=C1NC(=O)C(=Cc2ccc(OCCc3ccccc3)cc2)S1 [Compound 10, 2-(N-Cyanoimino)-5-(4-phenethyloxybenzylidene)thiazolidin-4-one] | – | – | 2.12 | – | – | – | – | – | – | – | – | – | – | – | – | all 3 mice given the respective compounds survived | – | 39%
N#CN=C1NC(=O)C(=Cc2ccc(Oc3ccccc3)cc2)S1 [Compound 22, 2-(N-Cyanoimino)-5-(4-phenoxybenzylidene)thiazolidin-4-one] | 16% | 34% | 1.73 | 41% | 65% | 56% | – | – | – | – | – | – | – | – | – | – | – | 65%
